Source: PubChem BioAssay (NCI)
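Following 48 hours of exposure in 96-well plates, responses at five concentrations were used to interpolate endpoints linearly. Abbreviation: GI50, concentration required for 50% inhibition of growth. At the TGI there is no net growth.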

Columns and labels:
Experiment in all cases: DTP human tumour cell line panel, 48 h
MCF7 breast = test system: MCF7 breast
NCI-H522 lung = test system: NCI-H522 lung
ACHN renal = test system: ACHN renal
SN12C renal = test system: SN12C renal
MOLT-4 leukemia = test system: MOLT-4 leukemia
SF-268 CNS = test system: SF-268 CNS
HCC-2998 colon = test system: HCC-2998 colon
NCI-H226 lung = test system: NCI-H226 lung
A498 renal = test system: A498 renal
MALME-3M melanoma = test system: MALME-3M melanoma
DU-145 prostate = test system: DU-145 prostate
OVCAR-4 ovarian = test system: OVCAR-4 ovarian
U251 CNS = test system: U251 CNS
HS 578T breast = test system: HS 578T breast
CCRF-CEM leukemia = test system: CCRF-CEM leukemia
A549 NSCLC = test system: A549 NSCLC
CAKI-1 renal = test system: CAKI-1 renal
SF-295 CNS = test system: SF-295 CNS
EKVX NSCLC = test system: EKVX NSCLC
SK-MEL-5 melanoma = test system: SK-MEL-5 melanoma
HCT-116 colon = test system: HCT-116 colon
LOX IMVI melanoma = test system: LOX IMVI melanoma
OVCAR-8 ovarian = test system: OVCAR-8 ovarian
PC-3 prostate = test system: PC-3 prostate
SF-539 CNS = test system: SF-539 CNS
T-47D breast = test system: T-47D breast
SK-OV-3 ovarian = test system: SK-OV-3 ovarian
HCT-15 colon = test system: HCT-15 colon
OVCAR-5 ovarian = test system: OVCAR-5 ovarian
NCI-H460 lung = test system: NCI-H460 lung
OVCAR-3 ovarian = test system: OVCAR-3 ovarian
KM12 colon = test system: KM12 colon
UACC-257 melanoma = test system: UACC-257 melanoma
RXF 393 renal = test system: RXF 393 renal
RPMI-8226 leukemia = test system: RPMI-8226 leukemia
786-0 renal = test system: 786-0 renal
COLO 205 colon = test system: COLO 205 colon
HT29 colon = test system: HT29 colon
K-562 leukemia = test system: K-562 leukemia
HL-60(TB) leukemia = test system: HL-60(TB) leukemia
MDA-MB-231 breast = test system: MDA-MB-231 breast
BT-549 breast = test system: BT-549 breast
MDA-MB-435 = test system: MDA-MB-435
M14 melanoma = test system: M14 melanoma
UACC-62 melanoma = test system: UACC-62 melanoma
IGROV1 ovarian = test system: IGROV1 ovarian
SNB-75 CNS = test system: SNB-75 CNS
MDA-MB-468 breast = test system: MDA-MB-468 breast
NCI-H23 lung = test system: NCI-H23 lung
TK-10 renal = test system: TK-10 renal
SNB-19 CNS = test system: SNB-19 CNS
SK-MEL-28 melanoma = test system: SK-MEL-28 melanoma
UO-31 renal = test system: UO-31 renal
HOP-92 NSCLC = test system: HOP-92 NSCLC
HOP-62 NSCLC = test system: HOP-62 NSCLC
SW-620 colon = test system: SW-620 colon

CCN(CC)c1ccnc(CNCCSC(c2ccccc2)(c2ccccc2)c2ccc(C)cc2)c1
GI50 (MCF7 breast): 1380 nM
TGI (MCF7 breast): 2850 nM
GI50 (NCI-H522 lung): 2270 nM
TGI (NCI-H522 lung): 5.61 µM
GI50 (ACHN renal): 3.22 µM
TGI (ACHN renal): 11.7 µM
GI50 (SN12C renal): 2400 nM
TGI (SN12C renal): 6.29 µM
GI50 (MOLT-4 leukemia): 2850 nM
TGI (MOLT-4 leukemia): 7.28 µM
GI50 (SF-268 CNS): 3.35 µM
TGI (SF-268 CNS): 13 µM
GI50 (HCC-2998 colon): 1690 nM
TGI (HCC-2998 colon): 3.07 µM
GI50 (NCI-H226 lung): 4.45 µM
TGI (NCI-H226 lung): 20.4 µM
GI50 (A498 renal): 12.4 µM
TGI (A498 renal): 27.4 µM
GI50 (MALME-3M melanoma): 1680 nM
TGI (MALME-3M melanoma): 3.13 µM
GI50 (DU-145 prostate): 2920 nM
TGI (DU-145 prostate): 8.29 µM
GI50 (OVCAR-4 ovarian): 3.7 µM
TGI (OVCAR-4 ovarian): 14.5 µM
GI50 (U251 CNS): 2140 nM
TGI (U251 CNS): 6.02 µM
GI50 (HS 578T breast): 2390 nM
TGI (HS 578T breast): 7.84 µM
GI50 (CCRF-CEM leukemia): 1960 nM
TGI (CCRF-CEM leukemia): 5.19 µM
GI50 (A549 NSCLC): 4.98 µM
TGI (A549 NSCLC): 20.6 µM
GI50 (CAKI-1 renal): 3.11 µM
TGI (CAKI-1 renal): 12.8 µM
GI50 (SF-295 CNS): 1590 nM
TGI (SF-295 CNS): 3.01 µM
GI50 (EKVX NSCLC): 1780 nM
TGI (EKVX NSCLC): 3.97 µM
GI50 (SK-MEL-5 melanoma): 1730 nM
TGI (SK-MEL-5 melanoma): 3.12 µM
GI50 (HCT-116 colon): 1670 nM
TGI (HCT-116 colon): 3.18 µM
GI50 (LOX IMVI melanoma): 1670 nM
TGI (LOX IMVI melanoma): 3.09 µM
GI50 (OVCAR-8 ovarian): 2490 nM
TGI (OVCAR-8 ovarian): 6.12 µM
GI50 (PC-3 prostate): 2270 nM
TGI (PC-3 prostate): 7.77 µM
GI50 (SF-539 CNS): 1870 nM
TGI (SF-539 CNS): 3.52 µM
GI50 (T-47D breast): 2500 nM
TGI (T-47D breast): 9.04 µM
GI50 (SK-OV-3 ovarian): 3.31 µM
TGI (SK-OV-3 ovarian): 11.5 µM
GI50 (HCT-15 colon): 1670 nM
TGI (HCT-15 colon): 3.15 µM
GI50 (OVCAR-5 ovarian): 2670 nM
TGI (OVCAR-5 ovarian): 11.3 µM
GI50 (NCI-H460 lung): 1980 nM
TGI (NCI-H460 lung): 3.79 µM
GI50 (OVCAR-3 ovarian): 2210 nM
TGI (OVCAR-3 ovarian): 5.07 µM
GI50 (KM12 colon): 2330 nM
TGI (KM12 colon): 5.79 µM
GI50 (UACC-257 melanoma): 3.52 µM
TGI (UACC-257 melanoma): 11.8 µM
GI50 (RXF 393 renal): 2230 nM
TGI (RXF 393 renal): 7.24 µM
GI50 (RPMI-8226 leukemia): 2050 nM
TGI (RPMI-8226 leukemia): 4.88 µM
GI50 (786-0 renal): 1710 nM
TGI (786-0 renal): 3.21 µM
GI50 (COLO 205 colon): 1840 nM
TGI (COLO 205 colon): 3.39 µM
GI50 (HT29 colon): 1910 nM
TGI (HT29 colon): 4.01 µM
GI50 (K-562 leukemia): 2340 nM
TGI (K-562 leukemia): 6.15 µM
GI50 (HL-60(TB) leukemia): 2220 nM
TGI (HL-60(TB) leukemia): 4.52 µM
GI50 (MDA-MB-231 breast): 1990 nM
TGI (MDA-MB-231 breast): 4.53 µM
GI50 (BT-549 breast): 1900 nM
TGI (BT-549 breast): 5.46 µM
GI50 (MDA-MB-435): 2260 nM
TGI (MDA-MB-435): 5.38 µM
GI50 (M14 melanoma): 1840 nM
TGI (M14 melanoma): 3.68 µM
GI50 (UACC-62 melanoma): 2640 nM
TGI (UACC-62 melanoma): 8.33 µM
GI50 (IGROV1 ovarian): 3.21 µM
TGI (IGROV1 ovarian): 12.3 µM
GI50 (SNB-75 CNS): 2870 nM
TGI (SNB-75 CNS): 14.1 µM
GI50 (MDA-MB-468 breast): 1830 nM
TGI (MDA-MB-468 breast): 3.85 µM
GI50 (NCI-H23 lung): 1700 nM
TGI (NCI-H23 lung): 3.27 µM
GI50 (TK-10 renal): 4.37 µM
TGI (TK-10 renal): 17 µM
GI50 (SNB-19 CNS): 3.13 µM
TGI (SNB-19 CNS): 12 µM
GI50 (SK-MEL-28 melanoma): 1860 nM
TGI (SK-MEL-28 melanoma): 4.16 µM
GI50 (UO-31 renal): 2660 nM
TGI (UO-31 renal): 12.7 µM
GI50 (HOP-92 NSCLC): 1620 nM
TGI (HOP-92 NSCLC): 5.87 µM
GI50 (HOP-62 NSCLC): 2290 nM
TGI (HOP-62 NSCLC): 6.21 µM
GI50 (SW-620 colon): 2470 nM
TGI (SW-620 colon): 6.86 µM
